{"source": "patent US7781419B2", "about": "“Use of bisphosphonates for otosclerosis” (priority 2003, dated 2010)", "key": {"[1]": {"test_system": "otosclerosis patients with hearing loss", "settings": "4 mg per injection, after 2 to 10 months, 5 patients (two also on etidronate)", "quoted_text": "To illustrate the advantages of the invention, patients with the following symptoms were treated.\nIn a fourth study, the following populations having the symptom stated were administered a zolendronic acid injection in 4 mg per injection no more frequently than every three months. The frequency of administration was dependent upon the patient response and the impending indication. Some patients were also administered etidronate. All patients received calcium plus vitamin D and/or calcium plus fluoride throughout the treatment.\nHearing Loss after 2 to 10 Months"}, "[2]": {"test_system": "otosclerosis patients with dizziness", "experiment": "Example 4: intravenous zolendronic acid, dizziness patients", "assay_type": "in vivo, human", "settings": "4 mg per injection, after 4 to 12 months, 3 patients", "procedure": "(§1) Patients were administered the bisphosphonate to see if dizziness could disappear or if associated symptoms of hearing loss or ear noise could be improved.\nIn a fourth study, the following populations having the symptom stated were administered a zolendronic acid injection in 4 mg per injection no more frequently than every three months. […] Some patients were also administered etidronate.\nDizziness after 4 to 12 Months"}, "[3]": {"test_system": "otosclerosis patients with hearing loss", "experiment": "Example 1: stepped-up risedronate, hearing loss patients", "assay_type": "in vivo, human", "settings": "30 mg twice weekly, after 3 to 24 months, 46 patients", "procedure": "(§2) In the first study, the following populations having the symptom stated were treated with a dosing schedule of 30 mg risedronate twice weekly (double the recommended dose for treating osteoporosis).\nHearing Loss after a Period of 3 to 24 Months"}, "[4]": {"test_system": "otosclerosis patients with tinnitus", "experiment": "Example 1: stepped-up risedronate, tinnitus patients", "assay_type": "in vivo, human", "settings": "30 mg twice weekly, after 3 to 19 months, 29 patients", "procedure": "This symptom can be a mild distraction, to an annoyance, to difficulty concentrating, to a total distraction. […] There are no current recognized treatments for tinnitus directed at a cause.\nas §2\nTinnitus or Ear Noise after a Period of 3 to 19 Months"}, "[5]": {"test_system": "otosclerosis patients with Meniere's syndrome", "experiment": "Example 2: stepped-up risedronate follow-up, Meniere's syndrome patients", "assay_type": "in vivo, human", "settings": "30 mg twice weekly, after 2 to 33 months, 42 patients", "from_the_text": "(§3) The second investigation is cumulative to the first investigation, i.e., some patients reported in Example 1 are included in Example 2.\nMeniere's Syndrome after a Period of 2 to 33 Months"}, "[6]": {"test_system": "otosclerosis patients with dizziness", "experiment": "Example 1: stepped-up risedronate, dizziness patients", "assay_type": "in vivo, human", "settings": "30 mg twice weekly, after 3 to 25 months, 76 patients", "procedure": "as §1, §2"}, "[7]": {"test_system": "otosclerosis patients with hearing loss", "experiment": "Example 2: stepped-up risedronate follow-up, hearing loss patients", "assay_type": "in vivo, human", "settings": "30 mg twice weekly, after 3 to 31 months, 125 patients", "from_the_text": "as §3\nHearing Loss after a Period of 3 to 31 Months"}, "[8]": {"test_system": "otosclerosis patients with tinnitus", "experiment": "Example 2: stepped-up risedronate follow-up, tinnitus patients", "assay_type": "in vivo, human", "settings": "30 mg twice weekly, after 2 to 31 months, 84 patients", "from_the_text": "as §3\nTinnitus or Ear Noise after 2 to 31 Months"}, "[9]": {"test_system": "otosclerosis patients with Meniere's syndrome", "experiment": "Example 1: stepped-up risedronate, Meniere's syndrome patients", "assay_type": "in vivo, human", "settings": "30 mg twice weekly, after 2 to 25 months, 36 patients", "procedure": "as §2"}, "[10]": {"test_system": "otosclerosis patients with dizziness", "experiment": "Example 2: stepped-up risedronate follow-up, dizziness patients", "assay_type": "in vivo, human", "settings": "30 mg twice weekly, after 2 to 32 months, 155 patients", "from_the_text": "as §3\nDizziness after a Period of 2 to 32 Months"}}, "note": "Like-named read-outs stand apart in the source and are kept apart here.", "data": [{"smiles": "O=P(O)(O)C(O)(Cn1ccnc1)P(=O)(O)O", "note": "[zolendronic acid]", "values": [{"measurement": "patients with hearing unchanged", "setting": "[1]", "value": 80, "unit": "%"}, {"measurement": "patients with hearing worse", "setting": "[1]", "value": 20, "unit": "%"}, {"measurement": "relief of dizziness", "setting": "[2]", "value": "~100", "unit": "%"}]}, {"smiles": "O=P(O)(O)C(O)(Cc1cccnc1)P(=O)(O)O", "note": "[risedronate, pyridiniyl bisphosphonate]", "values": [{"measurement": "patients with hearing improved", "setting": "[3]", "value": 70, "unit": "%"}, {"measurement": "patients with hearing unchanged", "setting": "[3]", "value": 24, "unit": "%"}, {"measurement": "patients with hearing worse", "setting": "[3]", "value": 6, "unit": "%"}, {"measurement": "improvement in tinnitus or ear noise", "setting": "[4]", "value": 68, "unit": "%"}, {"measurement": "patients with disappearance of tinnitus", "setting": "[4]", "value": 7, "unit": "%"}, {"measurement": "patients with reduction of tinnitus to a point where it was no longer a problem", "setting": "[4]", "value": 62, "unit": "%"}, {"measurement": "patients with tinnitus the same", "setting": "[4]", "value": 24, "unit": "%"}, {"measurement": "patients with tinnitus worse", "setting": "[4]", "value": 7, "unit": "%"}, {"measurement": "clogging or fullness in the ear worse", "setting": "[5]", "value": "no patients"}, {"measurement": "dizziness the same or worse", "setting": "[5]", "value": "no instances"}, {"measurement": "patients whose clogging or fullness in the ear disappeared", "setting": "[5]", "value": 26, "unit": "%"}, {"measurement": "patients whose dizziness disappeared", "setting": "[5]", "value": 57, "unit": "%"}, {"measurement": "patients with clogging or fullness in the ear better", "setting": "[5]", "value": 19, "unit": "%"}, {"measurement": "patients with clogging or fullness in the ear the same", "setting": "[5]", "value": 7, "unit": "%"}, {"measurement": "patients with ear noise better", "setting": "[5]", "value": 60, "unit": "%"}, {"measurement": "patients with ear noise gone", "setting": "[5]", "value": 10, "unit": "%"}, {"measurement": "patients with ear noise the same", "setting": "[5]", "value": 19, "unit": "%"}, {"measurement": "patients with ear noise worse", "setting": "[5]", "value": 2, "unit": "%"}, {"measurement": "patients with hearing better", "setting": "[5]", "value": 69, "unit": "%"}, {"measurement": "patients with hearing the same", "setting": "[5]", "value": 14, "unit": "%"}, {"measurement": "patients with hearing worse than with prior bisphosphonate treatment", "setting": "[5]", "value": 12, "unit": "%"}, {"measurement": "patients with improvement, regular lifestyle free of disabling dizziness", "setting": "[5]", "value": 17, "unit": "%"}, {"measurement": "patients with disappearance of dizziness", "setting": "[6]", "value": 38, "unit": "%"}, {"measurement": "patients with dizziness worse", "setting": "[6]", "value": 3, "unit": "%"}, {"measurement": "patients with no change in dizziness", "setting": "[6]", "value": 8, "unit": "%"}, {"measurement": "patients with reduced dizziness, no problem in daily living", "setting": "[6]", "value": 38, "unit": "%"}, {"measurement": "relief of dizziness", "setting": "[6]", "value": "greater than 90%"}, {"measurement": "patients with hearing improved", "setting": "[7]", "value": 51, "unit": "%"}, {"measurement": "patients with hearing unchanged", "setting": "[7]", "value": 47, "unit": "%"}, {"measurement": "patients with hearing worse", "setting": "[7]", "value": 2, "unit": "%"}, {"measurement": "improvement in tinnitus or ear noise", "setting": "[8]", "value": 76, "unit": "%"}, {"measurement": "patients with disappearance of tinnitus", "setting": "[8]", "value": 5, "unit": "%"}, {"measurement": "patients with reduction of tinnitus to a point where it was no longer a problem", "setting": "[8]", "value": 71, "unit": "%"}, {"measurement": "patients with tinnitus the same", "setting": "[8]", "value": 21, "unit": "%"}, {"measurement": "patients with tinnitus worse", "setting": "[8]", "value": 2, "unit": "%"}, {"measurement": "clogging or fullness in the ear worse", "setting": "[9]", "value": "no patient"}, {"measurement": "dizziness the same or worse", "setting": "[9]", "value": "no instances"}, {"measurement": "ear noise worse", "setting": "[9]", "value": "no patient"}, {"measurement": "patients in whom clogging or fullness in the ear was not present", "setting": "[9]", "value": 42, "unit": "%"}, {"measurement": "patients whose clogging or fullness in the ear disappeared", "setting": "[9]", "value": 17, "unit": "%"}, {"measurement": "patients whose dizziness disappeared", "setting": "[9]", "value": 50, "unit": "%"}, {"measurement": "patients whose ear noise cleared up", "setting": "[9]", "value": 8, "unit": "%"}, {"measurement": "patients with clogging or fullness in the ear better", "setting": "[9]", "value": 22, "unit": "%"}, {"measurement": "patients with clogging or fullness in the ear the same", "setting": "[9]", "value": 19, "unit": "%"}, {"measurement": "patients with ear noise better", "setting": "[9]", "value": 72, "unit": "%"}, {"measurement": "patients with ear noise unchanged", "setting": "[9]", "value": 19, "unit": "%"}, {"measurement": "patients with hearing better", "setting": "[9]", "value": 83, "unit": "%"}, {"measurement": "patients with hearing the same", "setting": "[9]", "value": 8, "unit": "%"}, {"measurement": "patients with hearing worse than with prior bisphosphonate treatment", "setting": "[9]", "value": 8, "unit": "%"}, {"measurement": "patients with improvement, regular lifestyle free of disabling dizziness", "setting": "[9]", "value": 16, "unit": "%"}, {"measurement": "patients whose dizziness disappeared", "setting": "[10]", "value": 45, "unit": "%"}, {"measurement": "patients with dizziness worse", "setting": "[10]", "value": 2, "unit": "%"}, {"measurement": "patients with no change in dizziness", "setting": "[10]", "value": 5, "unit": "%"}, {"measurement": "patients with reduced dizziness, no problem in daily living", "setting": "[10]", "value": 39, "unit": "%"}, {"measurement": "relief of dizziness", "setting": "[10]", "value": 84, "unit": "%"}]}]}
